These results are taken from US4252947A, “Novel quinazolinone” (Roussel Uclaf, priority 1976, dated 1981).

One data set concerns Eimeria tenella. Kind of data set: Coccidiostatic activity in chicks infested with Eimeria tenella. The class given is in vivo. As to conditions: for weight gain / weight gain (or less) as compared to the animals which received product A-B: chicks infested with Eimeria tenella; for weight gain: 14 to 22 days old; for weight gain / weight gain (or less) as compared to the animals which received product A-B / consumption index: feed with 1 ppm of Product A or 3 ppm of Product A-B; for weight gain (or less) as compared to the animals which received product A-B: relative to product A-B; for consumption index: feed consumed compared to weight gain, higher = more sick. From the text: The coccidiostatic activity of the product of Step E of Example 1 (product A) was studied in comparison with that of a racemic mixture of 7-bromo-6-chloro-3-[3-(3-hydroxy-2-piperidyl)-acetonyl]-4(3H)-quinazolinone (product A-B), 14 day old chicks were weighed and were divided into 3 groups of 13 animals. One group received a feed containing 1 ppm of product A, a second group received a feed containing 3 ppm of product A-B and the 3rd group received just the feed without any additive. The next day, the chicks were infested with Eimeria tenella coccidies and when the chicks were 22 days old, they were weighed as well as the remaining feed. The caecums were removed and the number of caecal lesions were noted. Also noted was (1) the weight of gain (or less) of the chicks as compared to the animals which received product A-B, (2) consumption index which is the amount of feed consumed compared to the weight gain which indice was all the more elevated than the animals which were more sick and (3) the intensity of the lesions on a seal of 1 to 6 were noted.

Data set [1] in a line: Oral acute toxicity (LD50, method of Finney). The format is in vivo. As to conditions: Swiss female mice; for LD50: mouse, in vivo, dose which caused death in 50% of the animals. On the procedure:
The oral acute toxicity was determined for products A and A-B on groups of Swiss female mice by the method of Finney and the results were expressed as LD50 (the dose which caused death in 50% of the animals). The DL50 for product A was 3.7 mg/kg and for product A-B was 6.8 mg/kg. The acute toxicity of product A is only about 1.8 times greater than product A-B.

Where a name gives a salt, the structure may show the parent alone.

Usually LD50 stands for the dose expected to kill half of the subjects tested. With `O=C(CC1NCCCC1O)Cn1cnc2cc(Br)c(Cl)cc2c1=O` (racemic) [Product A-B, 7-bromo-6-chloro-3-[3-(3-hydroxy-2-piperidyl)-acetonyl]-4(3H)-quinazolinone, reference compound], in the data set with Eimeria tenella, the “weight gain” value stood at 90.30 g, the “weight gain (or less) as compared to the animals which received product A-B” value was found to be 0% and the consumption index is 2.018. The compound further yielded an LD50 in data set [1] of 6.8 mg/kg.

As to `O=C(C[C@H]1NCCC[C@@H]1O)Cn1cnc2cc(Br)c(Cl)cc2c1=O` (single isomer, unassigned) [Product A, dextrorotary 7-bromo-6-chloro-3-[3-(3-hydroxy-2-piperidyl)-acetonyl]-4(3H)-quinazolinone hydrobromide], in the data set with Eimeria tenella, the “weight gain” value turned out to be 103.07 g, the “weight gain (or less) as compared to the animals which received product A-B” value is listed as “+14.14%” and the consumption index turned out to be 1.807. In the data set with Eimeria tenella (ratio to racemic mixture), the “coccidiostatic activity greater than the racemic product A-B” value was determined as 3 times. In data set [1], this compound had an LD50 of 3.7 mg/kg. The “acute toxicity greater than product A-B” value in data set [1] (ratio to racemic mixture) is “about 1.8 times”.
